{
  "source": "patent US20030220310A1",
  "about": "“Epoxy-steroidal aldosterone antagonist and calcium channel blocker combination therapy for treatment of congestive heart failure” (priority 2003, published 2003)",
  "key": {"[1]": {"test_system": "patients with heart failure after an acute myocardial infarction", "test": "Example 20 clinical study: eplerenone plus CCB in heart failure following acute myocardial infarction", "type": "in vivo, human", "description": "Clinical Study: Safety and Efficacy of Eplerenone When Co-Administered with a Calcium-Channel Blocker in Patients with Heart Failure Followin Acute Myocardial Infarctiong\nSecondary endpoints include cardiovascular morbidity and mortality. The study is a multicenter, randomized, double-blind, placebo-controlled, two-arm, parallel group trial that will continue until 1,012 deaths occur, which is estimated to require approximately 6,200 randomized patients followed for an average of approximately 2.5 years.\nEligible patients may be identified for inclusion at any time following emergency room evaluation and presumptive diagnosis of AMI with HF. […]\nPatients will receive CCB therapy and may have received anticoagulants and antiplatelet agents, and may have received thrombolytics or emergency angioplasty. […] Serum potassium will be determined at 48 hours after initiation of treatment, at 1 and 5 weeks, at all other scheduled study visits, and within one week following any dose change.\nStudy visits will occur at screening, baseline (randomization), 1 and 4 weeks, 3 months, and every 3 months thereafter until the study is terminated. […] Vital signs (seated heart rate and BP), New York Heart Association (NYHA) functional class, adverse events, and selected concurrent medications will be recorded at every visit. […]"}, "[2]": {"test_system": "rats made hypertensive by renal artery clip", "test": "Assay C: Hypertensive Rat Model", "type": "in vivo", "conditions": "combination of calcium channel blocker and epoxymexrenone versus either component alone, after 12 to 24 weeks", "method": "Assay “C”: Hypertensive Rat Model Male rats are made hypertensive by placing a silver clip with an aperture of 240 microns on the left renal artery, leaving the contralateral kidney untouched. Sham controls undergo the same procedure but without attachment of the clip. One week prior to the surgery, animals to be made hypertensive are divided into separate groups and drug treatment is begun. Groups of animals are administered vehicle, calcium channel blocker alone, epoxymexrenone alone, and combinations of calcium channel blocker and epoxymexrenone at various doses: [table] After 12 to 24 weeks, systolic and diastolic blood pressure, left ventricular end diastolic pressure, left ventricular dP/dt, and heart rate are evaluated. The hearts are removed, weighed, measured and fixed in formalin. Collagen content of heart sections are evaluated using computerized image analysis of picrosirius stained sections."}, "[3]": {"test": "X-ray powder diffraction, Form H content of dried solids", "type": "physicochemical", "conditions": "methyl ethyl ketone solvate dried at 100° C.", "method": "For the Siemens D500 powder diffractometer, the raw data was measured for 2q values from 2 to 50, with steps of 0.020 and step periods of two seconds. For the Inel Multipurpose Diffractometer, samples were placed in an aluminum sample holder and raw data was collected for 30 minutes at all two theta values simultaneously.\nThe weight percent of the diepoxide or 11,12-epoxide in each sample is given in Tables X-6A and X-6B, respectively. A micro-flea magnetic stirrer was added to each scintillation vial along with 1 mL of methyl ethyl ketone. The vials were loosely capped and the solid dissolved by heating to reflux on a hot plate with magnetic stirring. Once the solids were dissolved, the solutions were allowed to cool to room temperature on the hot plate. Magnetic stirring was maintained during the cooling period. After the solutions reached room temperature, the solids were collected by vacuum filtration and immediately analyzed by X-ray powder diffraction (XPRD). The solids were then placed in a 100° C. oven and dried for one hour at ambient pressure. The dried solids were analyzed by XPRD for Form H content by monitoring the area of the Form H diffraction peak at about 12.1 degrees two theta. All XPRD diffraction patterns were recorded using an Inel Multipurpose Diffractometer.\nThe area for the Form H diffraction peak at about 12.1 degrees two theta and the estimated Form H content for each sample are given in Table X-6C below."}, "[4]": {"test": "Differential scanning calorimetry, melting/decomposition", "type": "physicochemical", "conditions": "cooling rate (0) 1.5° C./min.; endpoint (0) 25° C.; 100.8% eplerenone seeded with Form H; analyzed by DSC", "description": "Melting/decomposition ranges were defined from the extrapolated onset to the maximum of the melting/decomposition endotherm. […] One or more endothermal events at lower temperatures were associated with enthalpy changes that occurred as solvent was lost from the solvate crystal lattice. The highest temperature endotherm or endotherms were associated with the melting/decomposition of Form L or Form H eplerenone."}, "[5]": {"test": "X-ray powder diffraction, Form H content of dried solids", "type": "physicochemical", "conditions": "for Form H Peak Area 12° Two Theta Peak / Estimated Weight Percent of Form H: methyl ethyl ketone solvate dried at 100° C."}, "[6]": {"conditions": "0% 11,12-epoxide in starting eplerenone mixture"}, "[7]": {"conditions": "1% 11,12-epoxide in starting eplerenone mixture"}, "[8]": {"conditions": "5% 11,12-epoxide in starting eplerenone mixture"}, "[9]": {"conditions": "5% diepoxide in starting eplerenone mixture"}, "[10]": {"conditions": "3% diepoxide in starting eplerenone mixture"}, "[11]": {"conditions": "10% 11,12-epoxide in starting eplerenone mixture"}},
  "note": "Where “and” joins values, the source holds several entries; their conditions need not be identical. Identical values can stand only once.",
  "data": [
    {"smiles": "COC(=O)[C@@H]1CC2=CC(=O)CC[C@]2(C)C23O[C@@H]2C[C@@]2(C)[C@@H](CC[C@@]24CCC(=O)O4)[C@H]13", "note": "(stereo partly drawn) [eplerenone, Pregn-4-ene-7,21-dicarboxylic acid, 9,11-epoxy-17-hydroxy-3-oxo-,γ-lactone, methyl ester, (7α,11α,17β)-]", "values": [
      {"measurement": "primary end point of all cause mortality", "setting": "[1]; eplerenone plus CCB relative to CCB alone", "value": "Improvement"},
      {"measurement": "secondary end points (cardiovascular mortality, hospitalizations, quality of life etc.)", "setting": "[1]; eplerenone plus CCB versus CCB alone", "value": "Beneficial effects"},
      {"measurement": "cardiac performance", "setting": "[2]", "value": "improvements in cardiac performance"},
      {"measurement": "Estimated Weight Percent of Form H", "setting": "[3]; [6]", "value": "None Detected"},
      {"measurement": "Form H Peak Area 12° Two Theta Peak", "setting": "[3]; [6]", "value": "None Detected"},
      {"measurement": "Estimated Weight Percent of Form H", "setting": "[3]; [7]", "value": "None Detected"},
      {"measurement": "Estimated Weight Percent of Form H", "setting": "[3]; [8]", "value": "None Detected"},
      {"measurement": "Form H Peak Area 12° Two Theta Peak", "setting": "[3]; [8]", "value": "None Detected"},
      {"measurement": "Estimated Weight Percent of Form H", "setting": "[3]; [9]", "value": 30, "unit": "%"},
      {"measurement": "Weight Percent Form H (DSC)", "setting": "[4]", "value": 100, "unit": "Weight Percent"},
      {"measurement": "Form H Peak Area 12° Two Theta Peak", "setting": "[5]; [7]", "value": "None Detected"},
      {"measurement": "Estimated Weight Percent of Form H", "setting": "[5]; [10]", "value": 10, "unit": "%"},
      {"measurement": "Form H Peak Area 12° Two Theta Peak", "setting": "[5]; [10]", "value": 1168},
      {"measurement": "Form H Peak Area 12° Two Theta Peak", "setting": "[5]; [9]", "value": 4175},
      {"measurement": "Estimated Weight Percent of Form H", "setting": "[5]; [11]", "value": "10-15%"},
      {"measurement": "Form H Peak Area 12° Two Theta Peak", "setting": "[5]; [11]", "value": 1541},
      {"measurement": "Weight Percent Form H", "setting": "[5]; Cooling Rate High, End Point High, Impurity Level High, High Fluid Bed drying", "value": 25, "unit": "%"},
      {"measurement": "Weight Percent Form H", "setting": "[5]; Cooling Rate High, End Point High, Impurity Level High, Low Fluid Bed drying", "value": 4.7, "unit": "%"},
      {"measurement": "Weight Percent Form H", "setting": "[5]; Cooling Rate High, End Point High, Impurity Level High, Vacuum Oven drying", "value": 29, "unit": "%"},
      {"measurement": "Weight Percent Form H", "setting": "[5]; Cooling Rate Low, End Point Low, Impurity Level Low, Low Fluid Bed drying", "value": 5.5, "unit": "%"},
      {"measurement": "Weight Percent Form H (XPRD)", "setting": "[5]; cooling rate (0) 1.5° C./min., endpoint (0) 25° C., 100.8% eplerenone seeded with Form H, analyzed by XPRD", "value": 77, "unit": "Weight Percent"},
      {"measurement": "Weight Percent Form H (XPRD)", "setting": "[5]; cooling rate (0) 1.5° C./min., endpoint (0) 25° C., impurity level (0) = 100.8% purity eplerenone starting material as printed, three runs", "value": "5 Weight Percent and <3% Weight Percent"},
      {"measurement": "Weight Percent Form H (XPRD)", "setting": "[5]; cooling rate (+) 3° C./min., endpoint (+) 45° C., impurity level (+) 89.3% purity eplerenone starting material", "value": 29, "unit": "Weight Percent"},
      {"measurement": "Weight Percent Form H (XPRD)", "setting": "[5]; cooling rate (+) 3° C./min., endpoint (−) 5° C., impurity level (+) 89.3% purity eplerenone starting material", "value": 9, "unit": "Weight Percent"},
      {"measurement": "Weight Percent Form H (XPRD)", "setting": "[5]; cooling rate (−) 0.1° C./min., endpoint (+) 45° C., impurity level (+) 89.3% purity eplerenone starting material", "value": 31, "unit": "Weight Percent"}
    ]}
  ]
}
